Data published in patent publication US7569724B2, “Carbamic acid compounds comprising an amide linkage as HDAC inhibitors” (Topotarget UK Limited, priority 2000, dated 2009).
Where two headings read alike, the source gives them in different places.

Assays:
[1] = system: HeLa cells; assay: Secondary assay: cell proliferation WST-1, HeLa; assay type: cell-based; conditions: Homo sapiens, 48 h, read-out: Cell Proliferation Inhibition WST-1 (IC50 unless otherwise specified) HeLa
In short: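 Absorbance at 450 nm (reference 690 nm); % activity vs untreated after blank subtraction, IC50 fitted with top 100 and bottom 0.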

[2] = system: K11 HPV E7 transformed human keratinocyte line; assay: Secondary assay: cell proliferation WST-1, K11; assay type: cell-based; conditions: for IC50: Homo sapiens, Keratinocyte, read-out: Cell Proliferation Inhibition WST-1 (IC50 unless otherwise specified) K11
Experimental: (§1) Compounds with HDAC inhibition activity, as determined using the primary assay, were subsequently evaluated using secondary cell-based assays. The following cell lines were used:
K11—HPV E7 transformed human keratinocyte line provided by Pidder Jansen-Duerr, Institut für Biomedizinische Alternsforschung, Innsbruck, Austria.
(§2) Cells were plated in 96-well plates at 3-10×10^3 cells/well in 100 μL of culture medium. The following day, different concentrations of candidate compounds were added and the cells incubated at 37° C. for 48 h. Subsequently, 10 μL/well of WST-1 reagent was added and the cells reincubated for 1 hour. After the incubation time, absorbance was measured.
(§3) WST-1 is a tetrazolium salt which is cleaved to formazan dye by cellular enzymes. An expansion in the number of viable cells results in an increase in the overall activity of mitochondrial dehydrogenases in the sample. This augmentation in the enzyme activity leads to an increase in the amount of formazan dye formed, which directly correlates to the number of metabolically active cells in the culture. The formazan dye produced is quantified by a scanning multiwell spectrophotometer by measuring the absorbance of the dye solution at 450 nm wavelength (reference wavelength 690 nm).
(§4) Percent activity (% activity) in reducing the number of viable cells was calculated for each test compound as: % activity={(S^C−B)/(S^o−B)}×100 wherein S^C denotes signal measured in the presence of the compound being tested, S^o denotes signal measured in the absence of the compound being tested, and B denotes the background signal measured in blank wells containing medium only.
(§5) IC50 values were calculated using the software package Prism 3.0 (GraphPad software Inc., San Diego, Calif.), setting top value at 100 and bottom value at 0.

[3] = system: JURKAT human T-cell line; assay: Secondary assay: cell proliferation WST-1, Jurkat; assay type: cell-based; conditions: 48 h; for IC50: Homo sapiens, read-out: Cell Proliferation Inhibition WST-1 (IC50 unless otherwise specified) Jurkat
Experimental: as §1
JURKAT—Human T-cell line (ATCC no. TIB-152).
as §2, §3, §4, §5

[4] = system: HDAC (HeLa cell extract); assay: Primary assay: deacetylase activity, HeLa cell extract as source of HDAC; assay type: biochemical, human; conditions: HeLa cell extract
In short: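 Crude HeLa extract (freeze-thaw in 60 mM TrisCl pH 8.0, 450 mM NaCl, 30% glycerol) was incubated 1 h at 37° C with a [³H]acetyl-labelled histone H4 N-terminal peptide in 20 mM Tris pH 7.4, 10% glycerol.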

[5] = read-out: HDAC Inhibition (IC50 unless otherwise specified) HeLa

| SMILES | IC50 [1] [µM] | IC50 ([2]; 48 h) [µM] | IC50 [3] [µM] | melting point [°C] | IC50 [4, 5] [µM] | HDAC Inhibition HeLa, percent ([4]; @ 500 nM) [% @ 500 nM] | IC50 ([4]; comparative tables, read-out: HeLa IC50) [µM] | HDAC Inhibition HeLa, percent ([4]; @ 100 nM) [% @ 100 nM] | IC50 ([2]; K11, 48 h) [µM] | Cell Proliferation Inhibition WST-1 (IC50 unless otherwise specified) K11 ([2]; K11, 48 h) | Cell Proliferation Inhibition WST-1 (IC50 unless otherwise specified) Jurkat [3] |
| --- | --- | --- | --- | --- | --- | --- | --- | --- | --- | --- | --- |
| O=C(CCCCCCNC(=O)c1ccc2ccccc2c1)NO [PX106493, Naphthalene-2-carboxylic acid (6-hydroxycarbamoyl-hexyl)-amide] | 0.36 | 2.1 | 0.2 | 136 to 137 |  |  |  |  |  |  |  |
| O=C(CCCCCCCNC(=O)c1ccc2ccccc2c1)NO [PX106515, Naphthalene-2-carboxylic acid (7-hydroxycarbamoyl-heptyl)-amide] | 3.6 | 1.8 | 2.7 | 138 to 139 | 0.0277 |  |  |  |  |  |  |
| O=C(CCCCCCC(=O)NCC(O)c1ccccc1)NO (centres unmarked) [PX116226, Octanedioic acid hydroxyamide (2-hydroxy-2-phenyl-ethyl)-amide] | 4.1 | 5.1 | 3.2 | 100 to 102 | 0.562 |  |  |  |  |  |  |
| CN(CCCCCC(=O)NO)C(=O)/C=C/C=C/c1ccccc1 [PX116234] | 3.4 | 3.6 | 2.7 | 145 to 147 | 0.015 |  |  |  |  |  |  |
| O=C(/C=C/c1cccn1-c1ccc(Cl)cc1)NCCCCCC(=O)NO [PX116235, E-3-[1-(4-Chlorophenyl)-1H-pyrrol-2-yl]-N-(5-hydroxycarbamoylpentyl)acrylamide] | 1 | 2.6 | 0.7 |  | 0.01 |  |  |  |  |  |  |
| O=C(CCCCCCC(=O)NC/C=C/c1ccccc1)NO [PX117416, Octanedioic acid hydroxyamide (3-phenyl-allyl)-amide] | 7.4 | 8.5 | 3.6 | 133 to 133.5 |  | 75 |  |  |  |  |  |
| O=C(CCCCCCC(=O)NCCc1ccccc1)NO [PX117419, Octanedioic acid hydroxyamide phenethyl-amide] | 13 | > 30 | 3.5 |  |  | 46 |  |  |  |  |  |
| O=C(CCCCCCC(=O)NCCCc1ccccc1)NO [PX117420, Octanedioic acid hydroxyamide (3-phenyl-propyl)-amide] | 15 | 23.5 | 5.3 | 97 to 98 |  | 73 |  |  |  |  |  |
| O=C(/C=C/c1cccc(Oc2ccccc2)c1)NCCCCCC(=O)NO [PX117430, E-N-(5-Hydroxycarbamoylpentyl)-3-(3-phenoxyphenyl)acrylamide] | 27 | 4.4 | 4.6 |  | 0.085 |  |  |  |  |  |  |
| O=C(C=C(c1ccccc1)c1ccccc1)NCCCCCC(=O)NO [PX117436, E-N-(5-Hydroxycarbamoylpentyl)-3,3-diphenylacrylamide] | 8.5 | > 30 | 3.5 |  |  | 64 |  |  |  |  |  |
| O=C(/C=C/C=C(c1ccccc1)c1ccccc1)NCCCCCC(=O)NO [PX117437, 2E-5,5-Diphenylpenta-2,4-dienoic acid (5-hydroxycarbamoylpentyl)amide] | 3.7 | 3.4 | 1.4 |  |  | 95 |  |  |  |  |  |
| O=C(/C=C/c1cccc2ccccc12)NCCCCCC(=O)NO [PX117441, N-(5-Hydroxycarbamoyl-pentyl)-3-naphthalen-1-yl-acrylamide] | 17 | 4.9 | 4.3 | 135 to 137 | 0.048 |  | 0.048 |  |  |  |  |
| O=C(CCCCCNC(=O)CC=C(c1ccccc1)c1ccccc1)NO [PX117454, E-4,4-Diphenylbut-3-enoic acid (5-hydroxycarbamoylpentyl)amide] | 15 | 13 | 3.4 |  | 0.263 |  |  |  |  |  |  |
| O=C(/C=C/c1cccc(NC(=O)/C=C/C=C/c2ccccc2)c1)NO [PX117706, N-{3-[(E)-3-(Hydroxyamino)-3-oxo-1-propenyl]phenyl}-5-phenyl-(2E,4E)-pentadienamide] | 30 | 6.9 | 1.8 |  | 0.32 |  |  |  |  |  |  |
| CC(/C=C/C(=O)Nc1cccc(/C=C/C(=O)NO)c1)=C\c1ccccc1 [PX117707, N-{3-[(E)-3-(Hydroxyamino)-3-oxo-1-propenyl]phenyl}-4-methyl-5-phenyl-(2E,4E)-pentadienamide] | 43 | 7.7 | 1.5 | 145 to 148 | 0.235 |  |  |  |  |  |  |
| O=C(/C=C/c1cccc(NC(=O)/C=C/c2ccc3c(c2)OCO3)c1)NO [PX117711, (E)-3-(1,3-Benzodioxol-5-yl)-N-{3-[(E)-3-(hydroxyamino)-3-oxo-1-propenyl]phenyl}-2-propenamide] | 9.8 | 7.9 | 0.92 | 128 | 0.44 |  |  |  |  |  |  |
| O=C(/C=C/c1ccc(C(F)(F)F)cc1)NCCCCCC(=O)NO [PX117717, N-(5-Hydroxycarbamoyl-pentyl)-3-(4-trifluoromethyl-phenyl)-acrylamide] | 5.9 | 2.34 | 0.41 | 132 to 134 | 0.022 |  |  |  |  |  |  |
| O=C(/C=C/c1cccc(OC(F)(F)F)c1)NCCCCCC(=O)NO [PX117718, N-(5-Hydroxycarbamoyl-pentyl)-3-(3-trifluoromethoxy-phenyl)-acrylamide] | 39 | 3.7 | 4.4 | 109 to 111 | 0.067 |  |  |  |  |  |  |
| O=C(/C=C/c1ccc(Cl)cc1F)NCCCCCC(=O)NO [PX117719, 3-(4-Chloro-2-fluoro-phenyl)-N-(5-hydroxycarbamoyl-pentyl)-acrylamide] | 6.8 | 0.94 | 0.56 |  |  |  |  |  |  |  |  |
| O=C(CCCCCCC(=O)Nc1ccc(-c2ccccc2)cc1)NO [PX117720, Octanedioic acid biphenyl-4-ylamide hydroxamide] | 1.8 | 2.5 | 0.26 | 227 to 229 | 0.04 |  |  |  |  |  |  |
| CC(C)(C(=O)NCCCCCC(=O)NO)c1ccc(Cl)cc1 [PX117722, 6-[2-(4-Chlorophenyl)-2-methyl-propionylamino]-hexanoic acid hydroxyamide] |  | > 30 | 8.8 |  | > 0.1 |  |  |  |  |  |  |
| O=C(CCCCCNC(=O)c1sccc1OCc1ccccc1)NO [PX117723] |  | 10 | 1.2 |  |  | 46 |  |  |  |  |  |
| O=C(CCCCCNC(=O)c1ccc(Oc2ccccc2)cc1)NO [PX117726] |  | 4.1 | 9.9 |  |  | 35 |  |  |  |  |  |
| O=C(CCCCCNC(=O)Cc1ccccc1OCc1ccccc1)NO [PX117728] |  | 28 | 4.1 |  | > 0.1 |  |  |  |  |  |  |
| Cc1ccc(C(CC(=O)NCCCCCC(=O)NO)NC(=O)OCc2ccccc2)cc1 (centres unmarked) [PX117729, [2-(5-Hydroxycarbamoyl-pentylcarbamoyl)-1-p-tolyl-ethyl]-carbamic acid benzyl ester] | 33 | 23 | 2.8 | 146 to 148 |  |  |  | 13 |  |  |  |
| C/C(C(=O)NCCCCCC(=O)NO)=C(/C)c1ccccc1 [PX117737, E-2-Methyl-3-phenylbut-2-enoic acid (5-hydroxycarbamoylpentyl)amide] | 32 | > 30 | 2.2 |  | 1.2 |  |  |  |  |  |  |
| O=C(CCCCCNC(=O)[C@H](Cc1c[nH]c2ccccc12)NC(=O)c1ccc2ccccc2c1)NO [PX117783, (S)-Naphthalene-2-carboxylic acid [1-(5-hydroxycarbamoyl-pentylcarbamoyl)-2-(1H-indol-3-yl)-ethyl]-amide] | 6 |  | 1.6 |  | 0.1 |  |  |  | 9.7 |  |  |
| O=C(CCCCCNC(=O)[C@H](Cc1c[nH]c2ccccc12)NC(=O)CCCNC(=O)OCc1ccccc1)NO [PX117785, (S)-Carbamic acid, [4-[[2-[[6-(hydroxyamino)-6-oxohexyl]amino]-1-(1H-indol-3-ylmethyl)-2-oxoethyl]amino]-4-oxobutyl]-, phenylmethyl ester] |  |  |  |  | 0.192 |  |  |  |  | Inactive | Inactive |
